Experiments:
[1] = system: Human immunodeficiency virus 1; test: Antiviral activity against HIV1 3B infected in human MT4 cells assessed as reduction in virus-induced cytopathogenic effect by MTT assay; conditions: Human immunodeficiency virus 1, 3B
[2] = Cytotoxicity against human MT4 cells assessed as reduction in cell viability by MTT assay
[3] = Selectivity ratio of CC50 for human MT4 cells to IC50 for HIV1 RES056 infected in MT4 cells
[4] = system: Human immunodeficiency virus 1; test: Antiviral activity against HIV1 RES056 infected in human MT4 cells assessed as reduction in virus-induced cytopathogenic effect by MTT assay; conditions: Human immunodeficiency virus 1, RES056, MT4
[5] = system: Human immunodeficiency virus 2; test: Antiviral activity against wild type HIV2 ROD infected in human MT4 cells assessed as reduction in virus-induced cytopathogenic effect by MTT assay; conditions: Human immunodeficiency virus 2, ROD
[6] = target: Human immunodeficiency virus type 1 reverse transcriptase (Human immunodeficiency virus 1, UniProt Q72547); test: Inhibition of wild type HIV1 reverse transcriptase assessed as reduction in biotin-dUTP incorporation into […] incubated for 1 hrs by ELISA
[7] = system: Human immunodeficiency virus 1; test: Antiviral activity against HIV1 harboring L100I mutant infected in human MT4 cells assessed as reduction in virus-induced cytopathogenic effect by MTT assay; conditions: Human immunodeficiency virus 1, MT4
[8] = system: Human immunodeficiency virus 1; test: Antiviral activity against HIV1 harboring F227L/V106A mutant infected in human MT4 cells assessed as reduction in virus-induced cytopathogenic effect by MTT assay; type: functional, organism-based; conditions: Human immunodeficiency virus 1, MT4
[9] = system: Human immunodeficiency virus 1; test: Antiviral activity against wild type HIV1 harboring Y181C mutant infected in human MT4 cells assessed as reduction in virus-induced cytopathogenic effect by MTT assay; conditions: Human immunodeficiency virus 1, MT4
[10] = system: Human immunodeficiency virus 1; test: Antiviral activity against wild type HIV1 harboring Y188L mutant infected in human MT4 cells assessed as reduction in virus-induced cytopathogenic effect by MTT assay; conditions: Human immunodeficiency virus 1, MT4
[11] = system: Human immunodeficiency virus 1; test: Antiviral activity against HIV1 harboring K103N mutant infected in human MT4 cells assessed as reduction in virus-induced cytopathogenic effect by MTT assay; type: functional, organism-based; conditions: Human immunodeficiency virus 1, MT4
[12] = system: Human immunodeficiency virus 1; conditions: Human immunodeficiency virus 1, MT4
in vitro = conditions: human, MT4 cells
Description: Selectivity index, ratio of CC50 for human MT4 cells to EC50 for HIV1 harboring E138K mutant infected in human MT4 cells

SMILES	EC50 [1] [nM]	CC50 [2] [nM]	selectivity ratio [3]	EC50 [4] [nM]	EC50 [5] [nM]	IC50 [6] [nM]	EC50 [7] [nM]	EC50 [8] [nM]	EC50 [9] [nM]	EC50 [10] [nM]	EC50 [11] [nM]	EC50 [12] [nM]	selectivity ratio (in vitro)
Cc1cc(C#N)cc(C)c1Oc1nc(NC2CCN(Cc3cccc(C(N)=O)c3)CC2)nc2c1CSCC2	15.4	> 236000	> 144	1640	> 236000	144							
Cc1cc(/C=C/C#N)cc(C)c1Oc1nc(NC2CCN(Cc3ccc([N+](=O)[O-])cc3)CC2)nc2c1CSCC2	26.2	59500	371	160	> 59500	232							
Cc1cc(/C=C/C#N)cc(C)c1Oc1nc(NC2CCN(Cc3ccc(C(N)=O)cc3)CC2)nc2c1CSCC2	15.5	18500	495	37.3	> 18500	179	8.65	20	31.1	35.2	12.5	30	615
Cc1cc(/C=C/C#N)cc(C)c1Oc1nc(NC2CCN(Cc3cccc(C(N)=O)c3)CC2)nc2c1CSCC2	50.4	9450	21	443	> 9450	184							
Cc1cc(C#N)cc(C)c1Oc1nc(Nc2ccc(C#N)cc2)nc2c1CSCC2	5.64	202000	1360	148	> 202000	41	9.31	27.1	27.6	24.3	< 3.87	9.43	21400
Cc1cc(C#N)cc(C)c1Oc1nc(Nc2ccc(C#N)c(F)c2)nc2c1CSCC2	13.5	269000	1030	262	> 269000	53							
Cc1cc(/C=C/C#N)cc(C)c1Oc1nc(NC2CCN(Cc3ccc(S(N)(=O)=O)cc3)CC2)nc2c1CSCC2	10.7	15100	272	55.4	4050	203	8.13	16.3	22.3	37.1	9.23	40.7	370
Cc1cc(C#N)cc(C)c1Oc1nc(Nc2ccc(C#N)cn2)nc2c1CSCC2	68.7	> 302000	> 1	256000	> 302000	53							
Cc1cc(/C=C/C#N)cc(C)c1Oc1nc(NC2CCN(Cc3cc(=O)[nH]c(=O)[nH]3)CC2)nc2c1CSCC2	30.8	23200	26	881	> 23200	171							
Cc1cc(C#N)cc(C)c1Oc1nc(NC2CCN(Cc3ccc(S(C)(=O)=O)cc3)CC2)nc2c1CSCC2	11.1	58000	465	125	5640	134	11.6	17.1	20.8	18.4	6.65	18.7	3100
Cc1cc(C#N)cc(C)c1Oc1nc(Nc2ccc(C#N)cc2F)nc2c1CSCC2	45.5	> 290000	> 1	> 290000	> 290000	65							
Cc1cc(C#N)cc(C)c1Oc1nc(NC2CCN(Cc3ccc(S(N)(=O)=O)cc3)CC2)nc2c1CSCC2	13.7	> 221000	> 1850	120	> 221000	151	7.88	15.1	7.44	12.6	7.17	15.9	> 13900
Cc1cc(C#N)cc(C)c1Oc1nc(Nc2ccc(C#N)nc2)nc2c1CSCC2	14.1	288000	119	2430	> 288000	43							
Cc1cc(/C=C/C#N)cc(C)c1Oc1nc(Nc2ccc(C#N)cn2)nc2c1CSCC2	25.8	246000	404	608	> 246000	59							
Cc1cc(C#N)cc(C)c1Oc1nc(NC2CCN(Cc3ccc([N+](=O)[O-])cc3)CC2)nc2c1CSCC2	11.5	> 236000	> 83	2850	> 236000	230							
Cc1cc(/C=C/C#N)cc(C)c1Oc1nc(Nc2ccc(C#N)cc2F)nc2c1CSCC2	31	> 273000	> 47	5810	> 273000	51							
Cc1cc(C#N)cc(C)c1Oc1nc(NC2CCN(Cc3cc(=O)[nH]c(=O)[nH]3)CC2)nc2c1CSCC2	13.8	25600	8	3200	> 25600	89							
Cc1cc(/C=C/C#N)cc(C)c1Oc1nc(Nc2ccc(C#N)c(F)c2)nc2c1CSCC2	15.8	54400	408	133	> 54400	8	8.41	74.3	32.7	54.3	15.8	41.2	1320
Cc1cc(/C=C/C#N)cc(C)c1Oc1nc(NC2CCN(Cc3ccc(S(C)(=O)=O)cc3)CC2)nc2c1CSCC2	12.6	21500	186	116	4810		9.24	14.9	34.1	60.2	8.48	34.8	619
Cc1cc(C#N)cc(C)c1Oc1nc(NC2CCN(Cc3ccc(C(N)=O)cc3)CC2)nc2c1CSCC2	9.98	> 236000	> 1690	140	> 236000	143	22.3	853	21.4	22.8	8.8	32.9	> 7180
O=C1Nc2ccc(Cl)cc2[C@@](C#CC2CC2)(C(F)(F)F)O1 [EFAVIRENZ]		> 6340									111		
Cc1ccnc2c1NC(=O)c1cccnc1N2C1CC1 [NEVIRAPINE]		> 15000		> 15000	> 15000		2220	> 15000	> 15000	> 15000	12300	182	

From ChEMBL document CHEMBL4831515 (J Med Chem, 2021)
